In ChEMBL document CHEMBL5614394, “Novel pleuromutilin derivatives conjugated with phenyl-sulfide and boron-containing moieties as potent antibacterial agents against antibiotic-resistant bacteria” (Eur J Med Chem, 2024):
Values after ≈ are worked out from the molar mass of the structure shown. Active and inactive are the calls of the source. No cut-off for these calls is given here.

Assays:
Staphylococcus aureus [1] = experiment: Antibacterial activity against Staphylococcus aureus USA 300 assessed as inhibition of visible growth of bacteria incubated for 24 hrs by CLSI protocol based broth-dilution method; assay type: functional
[2] = system: Staphylococcus epidermidis; experiment: Antibacterial activity against methicillin-sensitive Staphylococcus epidermidis isolate 20-15 assessed as inhibition of visible growth of bacteria incubated for 24 hrs by CLSI protocol based broth-dilution method; assay type: functional
Staphylococcus aureus [3] = experiment: Antibacterial activity against methicillin-resistant Staphylococcus aureus USA 300 assessed as number of colonies with prevalence of spontaneous mutation at 4 times of MIC incubated for 48 hrs by agar dilution assay; assay type: functional
Streptococcus pneumoniae [4] = experiment: Antibacterial activity against penicillin resistant Streptococcus pneumoniae isolate 20-1 assessed as inhibition of visible growth of bacteria incubated for 24 hrs by CLSI protocol based broth-dilution method; assay type: functional
Staphylococcus aureus [5] = experiment: Antibacterial activity against methicillin-resistant Staphylococcus aureus J1 harboring (lsa(E)+) genotype assessed as inhibition of visible growth of bacteria incubated for 24 hrs by CLSI protocol based broth-dilution method; assay type: functional
[6] = system: Staphylococcus epidermidis; experiment: Antibacterial activity against Staphylococcus epidermidis ATCC 12228 assessed as inhibition of visible growth of bacteria incubated for 24 hrs by CLSI protocol based broth-dilution method; assay type: functional
Staphylococcus aureus [7] = experiment: Antibacterial activity against Staphylococcus aureus ATCC 43300 assessed as inhibition of visible growth of bacteria incubated for 24 hrs by CLSI protocol based broth-dilution method; assay type: functional
Streptococcus pneumoniae [8] = experiment: Antibacterial activity against penicillin sensitive Streptococcus pneumoniae isolate 20-1 assessed as inhibition of visible growth of bacteria incubated for 24 hrs by CLSI protocol based broth-dilution method; assay type: functional
Staphylococcus aureus [9] = experiment: Antibacterial activity against Staphylococcus aureus ATCC 33591 assessed as inhibition of visible growth of bacteria incubated for 24 hrs by CLSI protocol based broth-dilution method; assay type: functional
Staphylococcus aureus [10] = experiment: Antibacterial activity against Staphylococcus aureus ATCC 25923 assessed as inhibition of visible growth of bacteria incubated for 24 hrs by CLSI protocol based broth-dilution method; assay type: functional
Acinetobacter baumannii = experiment: Antibacterial activity against Acinetobacter baumannii ATCC 19606 assessed as inhibition of visible growth of bacteria incubated for 24 hrs by CLSI protocol based broth-dilution method; assay type: functional
[11] = Stability in rat liver microsomes assessed as drug metabolism at 1 uM measured within 1 hrs in presence of NADPH by LC-MS analysis; assay type: ADME, Microsome; settings: read-out: Drug metabolism
Staphylococcus aureus [12] = experiment: Antibacterial activity against Staphylococcus aureus ATCC 700699 assessed as inhibition of visible growth of bacteria incubated for 24 hrs by CLSI protocol based broth-dilution method; assay type: functional
[13] = Stability in human liver microsomes assessed as drug metabolism at 1 uM measured within 1 hrs in presence of NADPH by LC-MS analysis; assay type: ADME, Microsome; settings: read-out: Drug metabolism
Enterococcus faecium [14] = experiment: Antibacterial activity against pleuromutilin-resistant Enterococcus faecium 18FJZ1-1 harboring (lsa(E)+) genotype assessed as inhibition of visible growth of bacteria incubated for 24 hrs by CLSI protocol based broth-dilution method; assay type: functional
Staphylococcus simulans = experiment: Antibacterial activity against pleuromutilin-resistant Staphylococcus simulans isolate 55-1 harboring cfr+ genotype assessed as inhibition of visible growth of bacteria incubated for 24 hrs by CLSI protocol based broth-dilution method; assay type: functional
Enterococcus faecalis [15] = experiment: Antibacterial activity against Enterococcus faecalis ATCC 29212 assessed as inhibition of visible growth of bacteria incubated for 24 hrs by CLSI protocol based broth-dilution method; assay type: functional
Enterococcus faecalis [16] = experiment: Antibacterial activity against Enterococcus faecalis HB 24-4 assessed as inhibition of visible growth of bacteria incubated for 24 hrs by CLSI protocol based broth-dilution method; assay type: functional
Staphylococcus aureus [17] = experiment: Bactericidal activity against methicillin-resistant Staphylococcus aureus USA 300 assessed as inhibition of bacterial growth at 8 times of MIC by time kill kinetics assay; assay type: functional, organism-based; settings: time <= 24.0 hrs, TDE = time-dependent effect
Staphylococcus aureus [18] = experiment: Antibacterial activity against methicilin-resistant Staphylococcus aureus isolate 15-2 assessed as inhibition of visible growth of bacteria incubated for 24 hrs by CLSI protocol based broth-dilution method; assay type: functional
Staphylococcus aureus [19] = experiment: Antibacterial activity against methicillin-resistant Staphylococcus aureus USA 300 assessed as inhibition of bacterial growth at 1 times of MIC measured upto 24 hrs by time-kill kinetics assay; assay type: functional, organism-based
[20] = Stability in mouse liver microsomes assessed as drug metabolism at 1 uM measured within 1 hrs in presence of NADPH by LC-MS analysis; assay type: ADME, Microsome; settings: read-out: Drug metabolism
Staphylococcus aureus [21] = experiment: Antibacterial activity against Staphylococcus aureus ATCC 700788 assessed as inhibition of visible growth of bacteria incubated for 24 hrs by CLSI protocol based broth-dilution method; assay type: functional
Staphylococcus aureus [22] = experiment: Antibacterial activity against Staphylococcus aureus ATCC 29213 assessed as inhibition of visible growth of bacteria incubated for 24 hrs by CLSI protocol based broth-dilution method; assay type: functional
Escherichia coli = experiment: Antibacterial activity against Escherichia coli ATCC 25922 assessed as inhibition of visible growth of bacteria incubated for 24 hrs by CLSI protocol based broth-dilution method; assay type: functional
Enterococcus faecium [23] = experiment: Antibacterial activity against pleuromutilin-resistant Enterococcus faecium 18SC29-2 harboring (lsa(E)-) genotype assessed as inhibition of visible growth of bacteria incubated for 24 hrs by CLSI protocol based broth-dilution method; assay type: functional
Staphylococcus aureus [24] = experiment: Antibacterial activity against methicillin-resistant Staphylococcus aureus USA 300 assessed as number of colonies with prevalence of spontaneous mutation at 8 times of MIC incubated for 48 hrs by agar dilution assay; assay type: functional
Staphylococcus aureus [25] = experiment: Antibacterial activity against methicillin resistant Staphylococcus aureus USA 300 infected in peritonitis sepsis CD-1 mouse model assessed as mouse survival rate at 40 mg/kg, iv administered as single dose and measured after 7 days relative to control; assay type: functional; settings: USA 300, 168 h, time 7 day
Streptococcus pneumoniae [26] = experiment: Antibacterial activity against penicillin resistant Streptococcus pneumoniae isolate 20-4 assessed as inhibition of visible growth of bacteria incubated for 24 hrs by CLSI protocol based broth-dilution method; assay type: functional
Streptococcus pneumoniae [27] = experiment: Antibacterial activity against penicillin resistant Streptococcus pneumoniae isolate 20-2 assessed as inhibition of visible growth of bacteria incubated for 24 hrs by CLSI protocol based broth-dilution method; assay type: functional
Streptococcus pneumoniae [28] = experiment: Antibacterial activity against penicillin resistant Streptococcus pneumoniae isolate 20-3 assessed as inhibition of visible growth of bacteria incubated for 24 hrs by CLSI protocol based broth-dilution method; assay type: functional
[29] = system: Staphylococcus epidermidis; experiment: Antibacterial activity against methicillin-resistant Staphylococcus epidermidis isolate 20-29 assessed as inhibition of visible growth of bacteria incubated for 24 hrs by CLSI protocol based broth-dilution method; assay type: functional
[30] = system: Staphylococcus epidermidis; experiment: Antibacterial activity against methicillin-resistant Staphylococcus epidermidis isolate 20-28 assessed as inhibition of visible growth of bacteria incubated for 24 hrs by CLSI protocol based broth-dilution method; assay type: functional
[31] = system: Staphylococcus epidermidis; experiment: Antibacterial activity against methicillin-resistant Staphylococcus epidermidis isolate 20-26 assessed as inhibition of visible growth of bacteria incubated for 24 hrs by CLSI protocol based broth-dilution method; assay type: functional
[32] = system: Staphylococcus epidermidis; experiment: Antibacterial activity against methicillin-resistant Staphylococcus epidermidis isolate 20-27 assessed as inhibition of visible growth of bacteria incubated for 24 hrs by CLSI protocol based broth-dilution method; assay type: functional

MIC [6]	Structure (SMILES)	MIC (Staphylococcus aureus [1])	MIC [2]	MIC (Streptococcus pneumoniae [4])	MIC (Staphylococcus aureus [7])	MIC (Streptococcus pneumoniae [8])	MIC (Staphylococcus aureus [9])	MIC (Staphylococcus aureus [10])	MIC (Acinetobacter baumannii)	metabolised at 1 h, 1 µM [11]	MIC (Staphylococcus aureus [12])	metabolised at 1 h, 1 µM [13]	MIC (Enterococcus faecalis [15])	MIC (Enterococcus faecalis [16])	MIC (Staphylococcus aureus [18])	metabolised at 1 h, 1 µM [20]	MIC (Staphylococcus aureus [21])	MIC (Staphylococcus aureus [22])	MIC (Escherichia coli)	other results
–	C=C[C@]1(C)C[C@@H](OC(=O)CS[C@@H]2CC[C@@H](N)C[C@H]2O)[C@]2(C)[C@H](C)CC[C@]3(CCC(=O)[C@H]32)[C@@H](C)[C@@H]1O [LEFAMULIN]	0.25 µg/mL (≈ 0.492 µM)	0.25 µg/mL (≈ 0.492 µM)	1 µg/mL (≈ 1.97 µM)	0.25 µg/mL (≈ 0.492 µM)	1 µg/mL (≈ 1.97 µM)	0.25 µg/mL (≈ 0.492 µM)	≤ 0.25 µg/mL	> 64 µg/mL	80.2%	0.25 µg/mL (≈ 0.492 µM)	84%	32 µg/mL (≈ 63 µM)	2 µg/mL (≈ 3.94 µM)	0.5 µg/mL (≈ 0.985 µM)	41.4%	0.5 µg/mL (≈ 0.985 µM)	0.25 µg/mL (≈ 0.492 µM)	8 µg/mL (≈ 15.8 µM)	survival at 40 mg/kg (Staphylococcus aureus [25]): 33%; MIC (Streptococcus pneumoniae [26]): 1 µg/mL (≈ 1.97 µM); MIC (Streptococcus pneumoniae [27]): 1 µg/mL (≈ 1.97 µM); MIC (Streptococcus pneumoniae [28]): 1 µg/mL (≈ 1.97 µM); MIC [29]: 0.125 µg/mL (≈ 0.246 µM); MIC [30]: 0.25 µg/mL (≈ 0.492 µM); MIC [31]: 0.5 µg/mL (≈ 0.985 µM); MIC [32]: 0.25 µg/mL (≈ 0.492 µM)
0.063 µg/mL (≈ 0.0967 µM)	C=C[C@]1(C)C[C@@H](OC(=O)CSc2cccc(NC(=O)c3ccc(B(O)O)cc3F)c2)[C@]2(C)[C@H](C)CC[C@]3(CCC(=O)[C@H]32)[C@@H](C)[C@@H]1O	–	–	–	–	–	–	–	–	–	–	–	–	–	–	–	–	0.063 µg/mL (≈ 0.0967 µM)	–	–
0.063 µg/mL (≈ 0.102 µM)	C=C[C@]1(C)C[C@@H](OC(=O)CSc2cccc(NCc3ccc(B(O)O)cc3)c2)[C@]2(C)[C@H](C)CC[C@]3(CCC(=O)[C@H]32)[C@@H](C)[C@@H]1O	–	–	–	–	–	–	–	–	–	–	–	–	–	–	–	–	0.063 µg/mL (≈ 0.102 µM)	–	–

Structure (SMILES)	MIC [6]	MIC (Staphylococcus aureus [1])	MIC [2]	MIC (Streptococcus pneumoniae [4])	MIC (Staphylococcus aureus [7])	MIC (Streptococcus pneumoniae [8])	MIC (Staphylococcus aureus [9])	MIC (Staphylococcus aureus [10])	MIC (Acinetobacter baumannii)	metabolised at 1 h, 1 µM [11]	MIC (Staphylococcus aureus [12])	metabolised at 1 h, 1 µM [13]	MIC (Enterococcus faecalis [15])	MIC (Enterococcus faecalis [16])	MIC (Staphylococcus aureus [18])	metabolised at 1 h, 1 µM [20]	MIC (Staphylococcus aureus [21])	MIC (Staphylococcus aureus [22])	MIC (Escherichia coli)	other results
C=C[C@]1(C)C[C@@H](OC(=O)CSc2cccc(NC(=O)c3ccc(B(O)O)cc3)c2)[C@]2(C)[C@H](C)CC[C@]3(CCC(=O)[C@H]32)[C@@H](C)[C@@H]1O	0.016 µg/mL (≈ 0.0253 µM)	≤ 0.03 µg/mL	≤ 0.03 µg/mL	0.06 µg/mL (≈ 0.0947 µM)	≤ 0.03 µg/mL	≤ 0.03 µg/mL	≤ 0.03 µg/mL	≤ 0.03 µg/mL	> 64 µg/mL	84.6%	≤ 0.03 µg/mL	78.8%	0.25 µg/mL (≈ 0.395 µM)	0.25 µg/mL (≈ 0.395 µM)	≤ 0.03 µg/mL	87.5%	≤ 0.03 µg/mL	≤ 0.016 µg/mL	64 µg/mL (≈ 101 µM)	Activity (Staphylococcus aureus [3]): <4.7 10^-11No_unit; MIC (Staphylococcus aureus [5]): 2 µg/mL (≈ 3.16 µM); MIC (Enterococcus faecium [14]): 0.5 µg/mL (≈ 0.789 µM); MIC (Staphylococcus simulans): 1 µg/mL (≈ 1.58 µM); Activity (Staphylococcus aureus [17]): Tde; Activity (Staphylococcus aureus [19]): Active; MIC (Enterococcus faecium [23]): ≤ 0.03 µg/mL; Activity (Staphylococcus aureus [24]): <4.7 10^-11No_unit
